# Measurements published in ChEMBL document CHEMBL3991601, “The target landscape of clinical kinase drugs” (Science, 2017).
# Active and inactive are the calls of the source. For most assays here, no stated cut-off is given here; in the data, actives have a measured Kd and inactives only a lower limit.
# What was measured:
# [1] = target: Dual specificity tyrosine-phosphorylation-regulated kinase 1A (Homo sapiens, UniProt Q13627)
# [2] = target: Ephrin type-A receptor 7 (Homo sapiens, UniProt Q15375)
# [3] = target: T1, MAP kinase-activated protein kinase 5 (Homo sapiens, UniProt Q8IW41)
# T1 sequence (Q8IW41 whole entry): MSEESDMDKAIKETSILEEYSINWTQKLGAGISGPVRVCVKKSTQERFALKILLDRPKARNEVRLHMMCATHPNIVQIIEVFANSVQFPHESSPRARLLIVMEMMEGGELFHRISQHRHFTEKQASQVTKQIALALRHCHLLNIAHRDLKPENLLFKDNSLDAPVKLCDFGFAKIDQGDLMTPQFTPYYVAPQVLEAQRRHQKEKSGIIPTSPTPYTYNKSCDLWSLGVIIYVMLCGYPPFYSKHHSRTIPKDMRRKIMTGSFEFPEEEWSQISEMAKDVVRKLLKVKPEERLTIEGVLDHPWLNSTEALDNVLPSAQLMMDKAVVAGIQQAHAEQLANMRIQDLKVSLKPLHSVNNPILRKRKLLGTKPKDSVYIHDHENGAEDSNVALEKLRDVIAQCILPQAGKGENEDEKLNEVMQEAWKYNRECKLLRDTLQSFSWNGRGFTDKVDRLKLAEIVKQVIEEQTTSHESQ
# [4] = target: T2, Ephrin type-B receptor 4 (Homo sapiens, UniProt P54760)
# T2 sequence (P54760 whole entry): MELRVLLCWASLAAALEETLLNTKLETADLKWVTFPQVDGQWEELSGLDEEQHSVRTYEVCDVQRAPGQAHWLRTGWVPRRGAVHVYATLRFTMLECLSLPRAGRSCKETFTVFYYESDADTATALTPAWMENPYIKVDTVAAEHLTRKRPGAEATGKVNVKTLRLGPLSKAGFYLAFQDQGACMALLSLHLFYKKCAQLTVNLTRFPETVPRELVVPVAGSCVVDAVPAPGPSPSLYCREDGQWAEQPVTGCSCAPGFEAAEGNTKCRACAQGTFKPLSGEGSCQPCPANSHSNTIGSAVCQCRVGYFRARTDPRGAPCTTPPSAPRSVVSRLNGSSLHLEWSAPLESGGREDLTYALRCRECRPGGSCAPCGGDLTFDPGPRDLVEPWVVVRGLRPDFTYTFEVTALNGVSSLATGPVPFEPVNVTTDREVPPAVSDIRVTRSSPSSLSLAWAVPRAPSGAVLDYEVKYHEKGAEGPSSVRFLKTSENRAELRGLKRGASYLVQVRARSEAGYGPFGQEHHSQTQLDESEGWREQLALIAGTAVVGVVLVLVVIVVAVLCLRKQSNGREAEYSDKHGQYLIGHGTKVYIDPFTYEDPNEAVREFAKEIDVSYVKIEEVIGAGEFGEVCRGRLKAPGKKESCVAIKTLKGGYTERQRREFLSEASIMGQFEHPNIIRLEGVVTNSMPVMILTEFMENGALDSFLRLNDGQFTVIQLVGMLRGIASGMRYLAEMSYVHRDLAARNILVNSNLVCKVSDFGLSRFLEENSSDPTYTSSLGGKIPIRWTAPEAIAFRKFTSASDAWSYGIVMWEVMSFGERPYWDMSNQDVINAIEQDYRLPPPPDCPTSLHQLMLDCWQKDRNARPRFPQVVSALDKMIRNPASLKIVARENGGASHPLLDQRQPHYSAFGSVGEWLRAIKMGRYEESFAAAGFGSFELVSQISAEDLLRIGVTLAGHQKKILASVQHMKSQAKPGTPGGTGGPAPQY
# [5] = target: Protein-tyrosine kinase 2-beta (Homo sapiens, UniProt Q14289)
# [6] = target: Glycogen synthase kinase-3 alpha (Homo sapiens, UniProt P49840)
# [7] = target: T3, Acyl-CoA dehydrogenase family member 10 (Homo sapiens, UniProt Q6JQN1)
# T3 sequence (Q6JQN1 whole entry): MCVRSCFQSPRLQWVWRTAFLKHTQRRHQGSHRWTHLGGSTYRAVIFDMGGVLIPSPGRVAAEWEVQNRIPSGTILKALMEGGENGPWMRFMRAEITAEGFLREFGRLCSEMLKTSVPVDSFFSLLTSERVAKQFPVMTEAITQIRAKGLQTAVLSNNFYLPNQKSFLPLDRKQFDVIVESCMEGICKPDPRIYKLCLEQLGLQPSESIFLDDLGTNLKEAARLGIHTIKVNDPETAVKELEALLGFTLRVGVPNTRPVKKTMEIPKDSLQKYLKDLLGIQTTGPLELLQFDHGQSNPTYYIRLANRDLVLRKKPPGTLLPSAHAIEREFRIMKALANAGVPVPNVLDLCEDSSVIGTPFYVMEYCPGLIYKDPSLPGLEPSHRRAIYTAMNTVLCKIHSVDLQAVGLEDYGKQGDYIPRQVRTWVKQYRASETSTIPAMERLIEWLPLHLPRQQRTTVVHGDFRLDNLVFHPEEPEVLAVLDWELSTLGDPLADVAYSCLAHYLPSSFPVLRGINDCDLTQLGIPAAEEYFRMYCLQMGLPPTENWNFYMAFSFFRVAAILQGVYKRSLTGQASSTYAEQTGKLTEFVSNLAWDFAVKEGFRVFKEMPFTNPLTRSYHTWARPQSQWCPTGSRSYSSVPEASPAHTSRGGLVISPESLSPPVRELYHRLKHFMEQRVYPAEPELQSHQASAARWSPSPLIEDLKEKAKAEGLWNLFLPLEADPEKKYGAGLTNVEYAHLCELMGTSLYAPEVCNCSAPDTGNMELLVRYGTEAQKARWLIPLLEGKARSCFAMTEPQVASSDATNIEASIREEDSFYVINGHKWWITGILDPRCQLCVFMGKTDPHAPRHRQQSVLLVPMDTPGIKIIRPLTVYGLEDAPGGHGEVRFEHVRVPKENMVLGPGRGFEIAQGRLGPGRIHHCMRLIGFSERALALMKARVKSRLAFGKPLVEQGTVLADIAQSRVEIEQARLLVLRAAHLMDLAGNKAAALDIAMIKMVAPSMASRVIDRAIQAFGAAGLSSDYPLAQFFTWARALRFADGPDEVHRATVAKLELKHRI
# [8] = target: Casein kinase I isoform delta (Homo sapiens, UniProt P48730)
# [9] = target: DNA topoisomerase 2-beta (Homo sapiens, UniProt Q02880)
# [10] = target: Cyclin-dependent kinase 4 (Homo sapiens, UniProt P11802)
# [11] = target: Ras-related protein Rab-6A (Homo sapiens, UniProt P20340)
# Chain of Ras-related protein Rab-6A (P20340 whole entry): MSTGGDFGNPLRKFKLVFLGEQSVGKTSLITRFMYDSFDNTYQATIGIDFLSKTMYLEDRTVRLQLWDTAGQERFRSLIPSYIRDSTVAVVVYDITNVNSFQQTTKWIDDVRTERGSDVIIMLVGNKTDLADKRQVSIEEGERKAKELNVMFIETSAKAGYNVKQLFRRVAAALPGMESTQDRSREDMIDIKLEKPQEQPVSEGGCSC
# Chain of Ephrin type-A receptor 7 (Q15375 whole entry): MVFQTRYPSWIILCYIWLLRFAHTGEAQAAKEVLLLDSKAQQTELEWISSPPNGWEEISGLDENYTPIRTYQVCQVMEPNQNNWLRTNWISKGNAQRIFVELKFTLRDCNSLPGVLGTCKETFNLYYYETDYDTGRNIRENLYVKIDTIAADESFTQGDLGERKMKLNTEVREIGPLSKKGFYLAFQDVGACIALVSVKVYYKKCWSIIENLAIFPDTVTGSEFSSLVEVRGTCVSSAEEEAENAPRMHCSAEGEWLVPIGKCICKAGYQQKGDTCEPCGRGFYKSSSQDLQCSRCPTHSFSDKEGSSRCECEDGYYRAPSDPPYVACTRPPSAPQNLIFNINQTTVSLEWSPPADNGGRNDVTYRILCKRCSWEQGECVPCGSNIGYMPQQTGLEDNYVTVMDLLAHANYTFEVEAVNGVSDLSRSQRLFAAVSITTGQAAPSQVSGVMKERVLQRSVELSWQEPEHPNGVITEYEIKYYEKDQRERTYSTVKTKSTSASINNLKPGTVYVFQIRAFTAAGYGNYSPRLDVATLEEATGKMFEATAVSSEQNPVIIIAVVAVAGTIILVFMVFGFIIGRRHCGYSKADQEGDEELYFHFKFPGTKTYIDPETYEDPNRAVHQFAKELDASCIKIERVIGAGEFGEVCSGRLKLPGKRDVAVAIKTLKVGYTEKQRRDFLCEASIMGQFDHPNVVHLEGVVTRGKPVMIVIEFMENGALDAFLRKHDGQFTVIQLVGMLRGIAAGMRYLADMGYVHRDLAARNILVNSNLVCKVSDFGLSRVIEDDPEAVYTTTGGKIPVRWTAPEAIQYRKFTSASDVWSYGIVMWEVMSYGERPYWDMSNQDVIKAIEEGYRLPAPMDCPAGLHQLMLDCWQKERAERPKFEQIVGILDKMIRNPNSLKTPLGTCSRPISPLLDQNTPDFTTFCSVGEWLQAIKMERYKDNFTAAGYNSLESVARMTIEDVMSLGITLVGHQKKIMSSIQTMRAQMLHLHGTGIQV
# Chain of Glycogen synthase kinase-3 alpha (P49840 whole entry): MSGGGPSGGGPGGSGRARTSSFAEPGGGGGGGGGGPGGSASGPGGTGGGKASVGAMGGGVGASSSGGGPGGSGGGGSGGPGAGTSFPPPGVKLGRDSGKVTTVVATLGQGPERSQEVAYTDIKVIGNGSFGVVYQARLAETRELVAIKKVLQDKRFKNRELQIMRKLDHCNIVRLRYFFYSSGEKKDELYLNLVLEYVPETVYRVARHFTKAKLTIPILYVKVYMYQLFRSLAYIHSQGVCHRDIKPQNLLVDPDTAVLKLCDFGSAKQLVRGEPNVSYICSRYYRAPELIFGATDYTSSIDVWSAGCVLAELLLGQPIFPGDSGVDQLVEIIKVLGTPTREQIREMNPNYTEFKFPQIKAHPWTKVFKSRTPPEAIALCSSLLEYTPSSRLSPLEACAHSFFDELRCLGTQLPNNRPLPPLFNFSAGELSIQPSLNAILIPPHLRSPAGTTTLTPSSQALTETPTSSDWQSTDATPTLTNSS
# Chain of Cyclin-dependent kinase 4 (P11802 whole entry): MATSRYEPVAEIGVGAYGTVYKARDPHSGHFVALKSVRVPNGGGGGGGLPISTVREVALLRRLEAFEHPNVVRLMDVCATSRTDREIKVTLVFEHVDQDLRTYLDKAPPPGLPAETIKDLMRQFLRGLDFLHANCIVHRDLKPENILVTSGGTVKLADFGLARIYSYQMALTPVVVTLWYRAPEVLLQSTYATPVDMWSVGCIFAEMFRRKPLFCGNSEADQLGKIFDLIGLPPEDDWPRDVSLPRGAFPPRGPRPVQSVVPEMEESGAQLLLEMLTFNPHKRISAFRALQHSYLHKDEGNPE
# Chain of DNA topoisomerase 2-beta (Q02880 whole entry): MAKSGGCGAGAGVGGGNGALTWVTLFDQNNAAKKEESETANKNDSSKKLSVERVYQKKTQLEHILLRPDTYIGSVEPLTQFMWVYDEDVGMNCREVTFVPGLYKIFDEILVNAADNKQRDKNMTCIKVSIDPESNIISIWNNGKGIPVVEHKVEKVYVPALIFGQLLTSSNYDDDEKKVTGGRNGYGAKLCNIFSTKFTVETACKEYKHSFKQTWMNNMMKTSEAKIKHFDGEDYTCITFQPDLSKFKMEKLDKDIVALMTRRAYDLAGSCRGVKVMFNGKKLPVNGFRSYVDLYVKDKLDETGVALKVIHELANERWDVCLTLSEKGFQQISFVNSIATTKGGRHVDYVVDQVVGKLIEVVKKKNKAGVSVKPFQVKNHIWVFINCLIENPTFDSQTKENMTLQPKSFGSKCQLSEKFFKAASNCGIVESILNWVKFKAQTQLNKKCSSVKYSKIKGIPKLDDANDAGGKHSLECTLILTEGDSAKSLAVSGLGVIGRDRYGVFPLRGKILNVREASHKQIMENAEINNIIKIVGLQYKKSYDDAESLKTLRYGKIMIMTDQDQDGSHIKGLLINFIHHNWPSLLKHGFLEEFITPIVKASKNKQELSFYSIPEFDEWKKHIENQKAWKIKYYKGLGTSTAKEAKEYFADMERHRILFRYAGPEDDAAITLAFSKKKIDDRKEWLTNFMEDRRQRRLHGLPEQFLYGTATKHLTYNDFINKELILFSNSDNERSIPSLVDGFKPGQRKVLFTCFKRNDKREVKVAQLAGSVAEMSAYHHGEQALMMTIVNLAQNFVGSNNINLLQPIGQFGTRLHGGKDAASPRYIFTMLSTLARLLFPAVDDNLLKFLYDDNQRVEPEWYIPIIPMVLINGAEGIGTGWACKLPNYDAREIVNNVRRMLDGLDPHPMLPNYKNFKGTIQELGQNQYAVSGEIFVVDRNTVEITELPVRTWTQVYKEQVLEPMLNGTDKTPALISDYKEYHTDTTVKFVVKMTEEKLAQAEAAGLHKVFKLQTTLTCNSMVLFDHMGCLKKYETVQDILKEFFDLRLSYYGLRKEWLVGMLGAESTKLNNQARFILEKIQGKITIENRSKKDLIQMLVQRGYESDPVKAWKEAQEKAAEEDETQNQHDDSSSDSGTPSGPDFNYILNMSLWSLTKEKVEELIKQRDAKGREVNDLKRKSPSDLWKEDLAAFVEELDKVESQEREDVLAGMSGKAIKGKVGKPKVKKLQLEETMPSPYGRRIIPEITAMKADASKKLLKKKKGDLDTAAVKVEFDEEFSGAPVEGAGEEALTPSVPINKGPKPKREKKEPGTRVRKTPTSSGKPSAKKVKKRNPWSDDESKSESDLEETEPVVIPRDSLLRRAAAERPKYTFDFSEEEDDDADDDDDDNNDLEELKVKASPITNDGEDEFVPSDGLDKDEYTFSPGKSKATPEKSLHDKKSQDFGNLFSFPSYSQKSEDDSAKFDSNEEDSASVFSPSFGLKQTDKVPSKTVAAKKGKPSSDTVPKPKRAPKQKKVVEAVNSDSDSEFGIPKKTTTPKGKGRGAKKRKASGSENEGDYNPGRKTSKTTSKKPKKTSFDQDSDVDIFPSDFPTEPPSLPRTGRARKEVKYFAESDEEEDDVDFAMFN
# Chain of Casein kinase I isoform delta (P48730 whole entry, canonical isoform): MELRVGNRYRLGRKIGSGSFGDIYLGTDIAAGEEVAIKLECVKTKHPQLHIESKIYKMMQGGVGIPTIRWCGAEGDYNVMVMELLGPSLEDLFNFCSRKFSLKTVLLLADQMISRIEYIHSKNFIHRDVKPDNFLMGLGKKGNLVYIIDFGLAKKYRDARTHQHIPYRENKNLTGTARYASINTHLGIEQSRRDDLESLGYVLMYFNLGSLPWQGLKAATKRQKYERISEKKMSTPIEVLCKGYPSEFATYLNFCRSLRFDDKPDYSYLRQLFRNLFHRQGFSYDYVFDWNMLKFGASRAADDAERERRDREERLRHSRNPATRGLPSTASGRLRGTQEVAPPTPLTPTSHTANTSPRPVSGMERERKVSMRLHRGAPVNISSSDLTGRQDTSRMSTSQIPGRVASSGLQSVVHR
# Chain of Protein-tyrosine kinase 2-beta (Q14289 whole entry): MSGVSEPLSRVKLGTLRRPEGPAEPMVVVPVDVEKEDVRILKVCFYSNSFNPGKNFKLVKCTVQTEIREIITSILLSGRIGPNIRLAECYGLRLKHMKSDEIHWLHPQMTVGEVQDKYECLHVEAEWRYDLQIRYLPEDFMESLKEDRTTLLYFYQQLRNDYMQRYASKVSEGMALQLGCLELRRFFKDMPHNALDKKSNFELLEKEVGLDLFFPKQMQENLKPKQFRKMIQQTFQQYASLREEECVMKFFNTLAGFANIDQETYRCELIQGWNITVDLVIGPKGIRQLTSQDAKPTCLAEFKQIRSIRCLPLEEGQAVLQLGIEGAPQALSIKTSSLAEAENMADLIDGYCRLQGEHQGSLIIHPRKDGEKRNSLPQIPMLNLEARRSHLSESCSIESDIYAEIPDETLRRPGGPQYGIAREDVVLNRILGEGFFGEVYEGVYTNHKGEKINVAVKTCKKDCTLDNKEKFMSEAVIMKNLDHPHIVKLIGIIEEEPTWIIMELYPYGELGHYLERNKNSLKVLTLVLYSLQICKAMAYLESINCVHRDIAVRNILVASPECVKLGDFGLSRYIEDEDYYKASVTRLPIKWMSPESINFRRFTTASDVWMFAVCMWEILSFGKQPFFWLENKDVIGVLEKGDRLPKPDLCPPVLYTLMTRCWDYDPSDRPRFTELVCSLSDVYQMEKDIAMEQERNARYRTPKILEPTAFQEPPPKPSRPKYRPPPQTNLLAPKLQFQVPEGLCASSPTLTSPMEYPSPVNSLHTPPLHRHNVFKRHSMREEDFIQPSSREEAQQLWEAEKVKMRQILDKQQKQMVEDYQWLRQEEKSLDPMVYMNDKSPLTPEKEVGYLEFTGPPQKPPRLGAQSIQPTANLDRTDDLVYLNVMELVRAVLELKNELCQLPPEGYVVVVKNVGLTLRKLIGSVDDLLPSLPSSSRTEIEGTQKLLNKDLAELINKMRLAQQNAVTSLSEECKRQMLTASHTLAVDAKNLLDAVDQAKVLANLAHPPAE
Kd [1],Kd [2],Kd [3],Kd [4],Kd [5],Kd [6],Kd [7],Kd [8],Kd [9],Kd [10],Kd [11],SMILES
> 30 µM (inactive),> 30 µM (inactive),> 30 µM (inactive),> 30 µM (inactive),> 30 µM (inactive),> 30 µM (inactive),> 30 µM (inactive),> 30 µM (inactive),0.148 µM (active),> 30 µM (inactive),> 30 µM (inactive),CC[C@@](C)(Nc1ccnc(-c2c[nH]c3ncccc23)n1)C(=O)NCC(F)(F)F [DECERNOTINIB]
> 30 µM (inactive),> 30 µM (inactive),> 30 µM (inactive),> 30 µM (inactive),> 30 µM (inactive),> 30 µM (inactive),> 30 µM (inactive),> 30 µM (inactive),> 30 µM (inactive),> 30 µM (inactive),> 30 µM (inactive),CCc1cc2c(cc1N1CCC(N3CCOCC3)CC1)C(C)(C)c1[nH]c3cc(C#N)ccc3c1C2=O [ALECTINIB]
> 30 µM (inactive),> 30 µM (inactive),> 30 µM (inactive),> 30 µM (inactive),> 30 µM (inactive),> 30 µM (inactive),> 30 µM (inactive),> 30 µM (inactive),> 30 µM (inactive),> 30 µM (inactive),> 30 µM (inactive),COc1cc2ncnc(Nc3ccc(F)c(Cl)c3)c2cc1NC(=O)/C=C/CN1CCCCC1 [DACOMITINIB ANHYDROUS]
> 30 µM (inactive),> 30 µM (inactive),> 30 µM (inactive),> 30 µM (inactive),> 30 µM (inactive),> 30 µM (inactive),> 30 µM (inactive),> 30 µM (inactive),> 30 µM (inactive),> 30 µM (inactive),> 30 µM (inactive),C#Cc1cccc(Nc2ncnc3cc4c(cc23)OCCOCCOCCO4)c1 [ICOTINIB]
> 30 µM (inactive),> 30 µM (inactive),> 30 µM (inactive),> 30 µM (inactive),> 30 µM (inactive),> 30 µM (inactive),> 30 µM (inactive),> 30 µM (inactive),> 30 µM (inactive),> 30 µM (inactive),> 30 µM (inactive),COc1ccc2c(OCc3nnc4ccc(-c5ccccc5)nn34)ccnc2c1 [AMG-208]
> 30 µM (inactive),> 30 µM (inactive),> 30 µM (inactive),> 30 µM (inactive),> 30 µM (inactive),> 30 µM (inactive),> 30 µM (inactive),> 30 µM (inactive),> 30 µM (inactive),> 30 µM (inactive),> 30 µM (inactive),CNC(=O)c1cccc(-c2ccc3c(N4CCOC[C@@H]4C)nc(N4CCOC[C@@H]4C)nc3n2)c1 [VISTUSERTIB]
> 30 µM (inactive),> 30 µM (inactive),> 30 µM (inactive),> 30 µM (inactive),> 30 µM (inactive),> 30 µM (inactive),> 30 µM (inactive),> 30 µM (inactive),> 30 µM (inactive),> 30 µM (inactive),> 30 µM (inactive),COc1cc2ncnc3c2cc1OCCCCCN(C)Cc1ccc(Br)cc1N3 [JNJ-26483327]
> 30 µM (inactive),> 30 µM (inactive),> 30 µM (inactive),> 30 µM (inactive),> 30 µM (inactive),> 30 µM (inactive),> 30 µM (inactive),> 30 µM (inactive),> 30 µM (inactive),> 30 µM (inactive),> 30 µM (inactive),COc1cc2nccc(Oc3ccc(NC(=O)C4(C(=O)Nc5ccc(F)cc5)CC4)cc3)c2cc1OC [CABOZANTINIB]
> 30 µM (inactive),> 30 µM (inactive),> 30 µM (inactive),> 30 µM (inactive),> 30 µM (inactive),> 30 µM (inactive),> 30 µM (inactive),> 30 µM (inactive),> 30 µM (inactive),> 30 µM (inactive),> 30 µM (inactive),Cn1c(=O)c(F)c(Nc2ccc(I)cc2F)c2c(=O)n(C[C@@H](O)CO)cnc21 [TAK-733]

SMILES,Kd [1],Kd [2],Kd [3],Kd [4],Kd [5],Kd [6],Kd [7],Kd [8],Kd [9],Kd [10],Kd [11]
CC1(COc2ccc3c(c2)ncn3-c2ccc3cccc(N4CCC(N)CC4)c3n2)COC1 [CRENOLANIB],4.97 µM (active),> 30 µM (inactive),> 30 µM (inactive),> 30 µM (inactive),> 30 µM (inactive),> 30 µM (inactive),> 30 µM (inactive),> 30 µM (inactive),> 30 µM (inactive),> 30 µM (inactive),> 30 µM (inactive)
Cc1c(NC(=O)OC[C@@H]2COCCN2)cn2ncnc(Nc3ccc4c(cnn4Cc4cccc(F)c4)c3)c12 [AC-480],> 30 µM (inactive),> 30 µM (inactive),> 30 µM (inactive),> 30 µM (inactive),> 30 µM (inactive),> 30 µM (inactive),> 30 µM (inactive),> 30 µM (inactive),> 30 µM (inactive),> 30 µM (inactive),> 30 µM (inactive)
Cc1c(Cn2c(C)nc3c(C(=O)O)cc(N4CCOCC4)cc32)cccc1C(F)(F)F [GSK-2636771],> 30 µM (inactive),> 30 µM (inactive),> 30 µM (inactive),> 30 µM (inactive),> 30 µM (inactive),> 30 µM (inactive),> 30 µM (inactive),> 30 µM (inactive),> 30 µM (inactive),> 30 µM (inactive),> 30 µM (inactive)
CCc1nc(C(N)=O)c(Nc2ccc(N3CCC(N4CCN(C)CC4)CC3)c(OC)c2)nc1NC1CCOCC1 [GILTERITINIB],> 30 µM (inactive),2.98 µM (active),> 30 µM (inactive),> 30 µM (inactive),0.51 µM (active),> 30 µM (inactive),> 30 µM (inactive),> 30 µM (inactive),> 30 µM (inactive),1.95 µM (active),> 30 µM (inactive)
